Columns and labels:
Type in all cases: in vivo, rat
TNF-α = assay: Serum TNF-α content by ELISA in bone cancer pain rats; conditions: for Cytokines TNF-α content in serum: after 15 days of administration; for Serum level of TNF-α compared with the model-negative group: after 15 days
Procedure: (§1) 60 SD rats were randomly selected, and after anesthesia, a small 1 cm incision was made in the upper tibial skin. A 10 mL syringe needle was used to puncture and perforate, then a 10 μL syringe was inserted into the bone marrow cavity, and 3 μL cell suspension containing 3×10^3 Walker rat breast cancer cells was slowly injected. The pinhole was sealed with bone wax, and the skin was sutured. After surgery, the rats were placed on a 37° C. hot plate for rewarming. After recovery, rats were returned to the cage for further breeding, to obtain the model group. In addition, 8 SD rats were randomly selected, and an equal volume of PBS solution was injected into the marrow cavity of the left upper tibia. The rest of the operations were the same as the model group, to obtain the sham operation group. The rats that had been successfully modeled were randomly divided into groups, eight rats for each group, that included high-dose chlorogenic acid group (80 mg/kg), middle-dose chlorogenic acid group (40 mg/kg), low-dose chlorogenic acid group (20 mg/kg), model negative group (N.S normal saline), and sham operation group (N.S normal saline). The rats were intraperitoneally injected with drugs for 15 days in a volume of 0.2 mL/10 g, once a day; the model-negative group and the sham operation group were given the same volume of normal saline. After the last administration, blood was collected from the eyeballs of the rats, and the animals in each group were sacrificed by neck removal. The blood samples were allowed to stand at room temperature for 20 minutes and then centrifuged. The supernatant was collected and the contents of TNF-α, IL-1β, and IL-6 in the peripheral blood serum of the […] were determined by ELISA.

5-HT = 5-HT content in brain tissue by HPLC-EC in bone cancer pain rats; conditions: for 5-HT content in the brain tissue: after 15 days of administration
Procedure: 60 SD rats were randomly selected, and after anesthesia, a small 1 cm incision was made in the upper tibial skin. A 10 mL syringe needle was used to puncture and perforate, then a 10 μL syringe was inserted into the bone marrow cavity, and 3 μL cell suspension containing […] Walker rat breast cancer cells was slowly injected. The pinhole was sealed with bone wax, and the skin was sutured. After surgery, the rats were placed on a 37° C. hot plate for rewarming. After recovery, rats were returned to the cage for further breeding, to obtain the model group. In addition, 8 SD rats were randomly selected, and an equal volume of PBS solution was injected into the marrow cavity of the left upper tibia. The rest of the operations were the same as the model group, to obtain the sham operation group. The rats that had been successfully modeled were randomly divided into groups, eight rats for each group, that included high-dose chlorogenic acid group (80 mg/kg), middle-dose chlorogenic acid group (40 mg/kg), low-dose chlorogenic acid group (20 mg/kg), model negative group (N.S normal saline), and sham operation group (N.S normal saline). The rats were intraperitoneally injected with drugs for 15 days in a volume of 0.2 mL/10 g, once a day; the model-negative group and the sham operation group were given the same volume of normal saline. After the rats were sacrificed, the hypothalamus was quickly separated, homogenized in an ice bath with perchloric acid, and centrifuged. The supernatant was collected, and the contents of NE, DA, and 5-HT were determined by HPLC-EC method (Hou […], Wang Na, et al, Effects of progesterone on morphine-induced conditioned place preference and levels of monoamine transmitters in rat brain. Chinese Journal of Pharmacology, 2006, 22(8), 980-983).

IL-6 = assay: Serum IL-6 content by ELISA in bone cancer pain rats; conditions: for Cytokines IL-6 content in serum: after 15 days of administration; for Serum level of IL-6 compared with the model-negative group: after 15 days
Procedure: as §1

O=C(/C=C/c1ccc(O)c(O)c1)O[C@@H]1C[C@](O)(C(=O)O)C[C@@H](O)[C@H]1O [Chlorogenic acid]
Cytokines TNF-α content in serum (TNF-α; 20 mg/kg ip once a day): 39.74 ± 6.04 ng/L
Serum level of TNF-α compared with the model-negative group (TNF-α; 20 mg/kg, p<0.05): lower than those in the model-negative group
Cytokines TNF-α content in serum (TNF-α; 40 mg/kg ip once a day): 35.25 ± 4.62 ng/L
Serum level of TNF-α compared with the model-negative group (TNF-α; 40 mg/kg, p<0.05): lower than those in the model-negative group
Cytokines TNF-α content in serum (TNF-α; 80 mg/kg ip once a day): 54.48 ± 5.99 ng/L
Serum level of TNF-α compared with the model-negative group (TNF-α; 80 mg/kg): the difference was not significant
5-HT content in the brain tissue (5-HT; 20 mg/kg ip once a day): 0.91 ± 0.15 nmol/g
5-HT content in brain tissue compared with the model-negative group (5-HT; 20 mg/kg, p<0.05): the difference was significant
5-HT content in the brain tissue (5-HT; 40 mg/kg ip once a day): 0.95 ± 0.19 nmol/g
5-HT content in brain tissue compared with the model-negative group (5-HT; 40 mg/kg, p<0.05): the difference was significant
5-HT content in the brain tissue (5-HT; 80 mg/kg ip once a day): 0.77 ± 0.11 nmol/g
5-HT content in brain tissue compared with the model-negative group (5-HT; 80 mg/kg, p>0.05): no significant difference
Cytokines IL-6 content in serum (IL-6; 20 mg/kg ip once a day): 84.09 ± 5.16 ng/L
Serum level of IL-6 compared with the model-negative group (IL-6; 20 mg/kg, p<0.05): lower than those in the model-negative group
Cytokines IL-6 content in serum (IL-6; 40 mg/kg ip once a day): 78.73 ± 6.39 ng/L
Serum level of IL-6 compared with the model-negative group (IL-6; 40 mg/kg, p<0.05): lower than those in the model-negative group
Cytokines IL-6 content in serum (IL-6; 80 mg/kg ip once a day): 98.82 ± 4.54 ng/L
Serum level of IL-6 compared with the model-negative group (IL-6; 80 mg/kg): the difference was not significant
